Measurements as given in the NIST ThermoML archive (doi:10.1016/j.jct.2017.09.012).
± gives the expanded uncertainty stated by the source.

Test: osmotic coefficient (dimensionless); mn = molality of the nth substance listed, in mol/kg
Settings: 101 kPa, Liquid, isopiestic method

Work on `O=S(=O)([O-])[O-].[Zn+2]` [zinc sulfate] + O yielded an osmotic coefficient (288.15 K, m1 = 3.567) of 1.09 ± 0.03, an osmotic coefficient (288.15 K, m1 = 3.787) of 1.19 ± 0.033 and an osmotic coefficient (288.15 K, m1 = 3.997) of 1.29 ± 0.03. The osmotic coefficient (298.15 K, m1 = 3.223) was 0.935 ± 0.009, the osmotic coefficient (298.15 K, m1 = 3.836) was 1.16 ± 0.013 and the osmotic coefficient (308.15 K, m1 = 3.614) was 1.019 ± 0.005. For the same compound, the osmotic coefficient (308.15 K, m1 = 3.962) was 1.144 ± 0.009, the osmotic coefficient (308.15 K, m1 = 4.295) was 1.27 ± 0.015 and the osmotic coefficient (313.15 K, m1 = 4.014) was 1.133 ± 0.007. It also gave an osmotic coefficient (313.15 K, m1 = 4.25) of 1.217 ± 0.009 and an osmotic coefficient (313.15 K, m1 = 4.47) of 1.302 ± 0.013.
